Data taken from the supplement of paper PMC10307832.

Experiments:
Experiment in all cases: relative viability (nuclei count vs DMSO), 5 days (fraction); higher = more cells survive
Pazopanib + Decitabine = compound: Cc1ccc(Nc2nccc(N(C)c3ccc4c(C)n(C)nc4c3)n2)cc1S(N)(=O)=O [Pazopanib] + Nc1ncn([C@H]2C[C@H](O)[C@@H](CO)O2)c(=O)n1 [Decitabine] (partner 2 µM)
Method in brief: (§1)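 Relative viability equals treated-well nuclei counts divided by vehicle-well nuclei counts. Counts came from 4× images of lung cancer cell lines grown in 1536-well plates for 5 days after pin-tool dosing on the day after seeding. Dosing used one drug alone or a fixed anchor-drug dose plus five library-drug doses (not always all listed) in √10 steps, and values are medians of duplicate plates.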

Ponatinib + Olaparib = compound: Cc1ccc(C(=O)Nc2ccc(CN3CCN(C)CC3)c(C(F)(F)F)c2)cc1C#Cc1cnc2cccnn12 [Ponatinib] + O=C(c1cc(Cc2n[nH]c(=O)c3ccccc23)ccc1F)N1CCN(C(=O)C2CC2)CC1 [Olaparib] (partner 8 µM)
Method in brief: as §1

Ponatinib + Lapatinib = compound: Cc1ccc(C(=O)Nc2ccc(CN3CCN(C)CC3)c(C(F)(F)F)c2)cc1C#Cc1cnc2cccnn12 [Ponatinib] + CS(=O)(=O)CCNCc1ccc(-c2ccc3ncnc(Nc4ccc(OCc5cccc(F)c5)c(Cl)c4)c3c2)o1 [Lapatinib] (partner 2 µM)
Method in brief: as §1

Pazopanib + Tozasertib = compound: Cc1ccc(Nc2nccc(N(C)c3ccc4c(C)n(C)nc4c3)n2)cc1S(N)(=O)=O [Pazopanib] + Cc1cc(Nc2cc(N3CCN(C)CC3)nc(Sc3ccc(NC(=O)C4CC4)cc3)n2)n[nH]1 [Tozasertib] (partner 0.1 µM)
Method in brief: as §1

Row | Cell Line | relative viability (Pazopanib + Decitabine; first compound 0.01 µM) | relative viability (Pazopanib + Decitabine; first compound 0.03162 µM) | relative viability (Pazopanib + Decitabine; first compound 0.1 µM) | relative viability (Pazopanib + Decitabine; first compound 0.3162 µM) | relative viability (Pazopanib + Decitabine; first compound 1 µM) | relative viability (Ponatinib + Olaparib; first compound 0.002 µM) | relative viability (Ponatinib + Olaparib; first compound 0.006325 µM) | relative viability (Ponatinib + Olaparib; first compound 0.06325 µM) | relative viability (Ponatinib + Olaparib; first compound 0.2 µM) | relative viability (Ponatinib + Lapatinib; first compound 0.002 µM) | relative viability (Ponatinib + Lapatinib; first compound 0.006325 µM) | relative viability (Ponatinib + Lapatinib; first compound 0.06325 µM) | relative viability (Ponatinib + Lapatinib; first compound 0.2 µM) | relative viability (Pazopanib + Tozasertib; first compound 0.03162 µM) | relative viability (Pazopanib + Tozasertib; first compound 0.1 µM) | relative viability (Pazopanib + Tozasertib; first compound 0.3162 µM) | relative viability (Pazopanib + Tozasertib; first compound 1 µM) | relative viability (Pazopanib + Tozasertib; first compound 0.01 µM)
1 | LK-2 | 0.228 | 0.318 | 0.324 | 0.243 | 0.277 | 0.584 | 0.759 | 0.661 | 0.435 | 0.82 | 0.861 | 0.696 | 0.54 | 0.178 | 0.201 | 0.169 | 0.174 | 
2 | LOU-NH91 | 0.808 | 0.78 | 0.828 | 0.828 | 0.769 | 0.898 | 0.919 | 1.03 | 0.879 | 0.717 | 0.788 | 0.755 | 0.709 | 0.664 | 0.749 | 0.781 | 0.698 | 0.647
3 | LU99A |  | 0.916 | 0.935 | 0.953 | 0.961 | 0.259 | 0.246 | 0.255 | 0.255 | 0.98 | 1.13 | 0.951 | 0.868 | 0.3 | 0.277 | 0.262 | 0.233 | 0.272
4 | LXF-289 | 0.395 | 0.351 | 0.39 | 0.373 | 0.381 | 0.97 | 1.05 | 1.06 | 1.06 | 0.855 | 0.895 | 0.894 | 0.859 | 0.213 | 0.189 | 0.189 | 0.175 | 0.223
5 | NCI-H23 | 0.308 | 0.309 | 0.341 | 0.376 | 0.335 | 0.327 | 0.343 | 0.466 | 0.328 | 1.03 | 1.02 | 1.31 | 0.985 | 0.341 | 0.359 | 0.458 | 0.392 | 0.373
6 | NCI-H322M | 0.696 | 0.748 | 0.71 | 0.8 | 0.754 | 0.787 | 0.729 | 0.739 | 0.649 | 0.636 | 0.61 | 0.659 | 0.518 | 0.518 | 0.547 | 0.448 | 0.476 | 0.536
7 | NCI-H358 | 0.217 | 0.22 | 0.219 | 0.25 | 0.276 | 0.565 | 0.609 | 0.648 | 0.49 | 0.468 | 0.431 | 0.393 | 0.378 | 0.0888 | 0.104 |  | 0.0878 | 0.109
8 | NCI-H460 | 0.561 | 0.513 | 0.551 | 0.488 | 0.552 | 0.335 | 0.395 | 0.412 | 0.397 | 0.942 | 0.853 | 1.08 | 0.876 | 0.503 | 0.523 | 0.494 | 0.393 | 0.564
9 | NCI-H520 | 0.48 | 0.471 | 0.569 | 0.509 | 0.572 | 0.335 | 0.355 | 0.325 | 0.225 | 0.725 | 0.801 | 0.688 | 0.531 | 0.416 | 0.452 | 0.438 | 0.386 | 0.458
10 | NCI-H596 | 0.996 | 1.08 | 1.14 | 1.12 | 0.966 | 0.662 | 0.72 | 0.787 | 0.661 | 1.09 | 0.898 | 0.905 | 0.748 | 0.942 | 0.856 | 0.936 | 0.761 | 
11 | NCI-H647 | 0.402 | 0.408 | 0.344 | 0.487 | 0.295 | 0.521 | 0.527 | 0.615 | 0.522 | 0.99 | 0.995 | 1.11 | 0.811 | 0.279 | 0.395 | 0.43 | 0.321 | 0.23
12 | NCI-H650 | 0.303 | 0.299 | 0.353 | 0.293 | 0.353 | 0.344 | 0.417 | 0.452 | 0.401 | 0.886 | 0.835 | 0.819 | 0.854 | 0.826 | 0.691 | 0.804 | 0.655 | 0.688
13 | NCI-H661 | 0.498 | 0.576 | 0.578 | 0.598 | 0.596 | 0.724 | 0.704 | 0.833 | 0.737 | 0.437 | 0.523 | 0.592 | 0.361 | 0.355 | 0.349 | 0.347 | 0.344 | 0.343
14 | NCI-H727 | 0.724 |  | 0.879 | 0.885 | 1.02 | 0.609 | 0.742 | 0.587 | 0.627 | 0.794 | 0.825 | 1.11 | 0.77 | 0.543 | 0.622 | 0.631 | 0.704 | 0.599
15 | NCI-H838 | 0.458 | 0.462 | 0.507 | 0.414 | 0.523 | 0.758 | 0.771 | 0.795 | 0.669 | 0.911 | 1.04 | 1.03 | 0.813 | 0.247 | 0.29 | 0.28 | 0.295 | 0.278
16 | NCI-H1355 | 0.355 | 0.314 | 0.367 | 0.358 | 0.386 | 0.668 | 0.709 | 0.817 | 0.739 | 0.939 | 0.947 | 1.17 | 1.02 | 0.579 | 0.513 | 0.55 | 0.553 | 0.582
